Measurements from patent US20240285571A1, “METHODS OF TREATING BONE INFECTIONS” (MICROBION CORPORATION, priority 2020, published 2024).
Read-outs that look alike come from different tables or passages of the source.

Key:
Type in all cases: cell-based
Escherichia coli = test: Broth microdilution MIC (Example 6); conditions: Escherichia coli, read-out: MIC
Summary of the method: (§1)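 Activity was measured by CLSI broth microdilution using 2-fold serial dilutions and an inoculum of about 5×10^5 CFU/mL. Plates were incubated at 35 °C for 16 to 20 hr. The MIC is the lowest drug concentration that prevented visible growth.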

Klebsiella pneumoniae = test: Broth microdilution MIC (Example 6); conditions: Klebsiella pneumoniae, read-out: MIC
Summary of the method: as §1

Pseudomonas aeruginosa = test: Broth microdilution MIC (Example 6); conditions: Pseudomonas aeruginosa, read-out: MIC
Summary of the method: as §1

Acinetobacter baumannii = test: Broth microdilution MIC (Example 6); conditions: Acinetobacter baumannii, read-out: MIC
Summary of the method: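 CLSI broth microdilution in cation-adjusted Mueller Hinton broth, test agents 0.06-64 μg/mL from DMSO stocks, inoculum approx. 5×10^5 CFU/mL. Incubation 35° C for 16–20 hr; MIC taken as lowest concentration inhibiting visible growth.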

[1] = test system: relevant ATCC QC organisms; test: Broth microdilution MIC, QC (Example 6); conditions: read-out: MIC
Summary of the method: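 QC strains were tested per CLSI broth microdilution in cation-adjusted Mueller Hinton broth, with Ca2+ supplemented for daptomycin, at about 5×10^5 CFU/mL. Incubation was at 35° C for 16–20 hr, or 24 hr for vancomycin against S. aureus. The MIC was the lowest concentration inhibiting visible growth.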

[2] = ATCC35218, E. coli ATCC 35218, ESBL
[3] = ATCCBAA2471, E. coli ATCC BAA-2471, NDM
[4] = ATCCBAA1705, K. pneumoniae ATCC BAA-1705, ESBL/KPC
[5] = K. pneumoniae CDC 113, ESBL/KPC
[6] = K. pneumoniae CDC 115, ESBL/KPC
[7] = K. pneumoniae CDC 120, ESBL/KPC
[8] = K. pneumoniae CDC 126, ESBL/KPC
[9] = K. pneumoniae CDC 129, ESBL/KPC
[10] = K. pneumoniae CDC 135, ESBL/VIM
[11] = K. pneumoniae CDC 138, ESBL/NDM
[12] = K. pneumoniae CDC 158, ESBL/NDM/OXA
[13] = P. aeruginosa isolate CDC 230, β-lactamase type VIM/OXA
[14] = P. aeruginosa isolate CDC 231, β-lactamase type KPC/OXA
[15] = P. aeruginosa isolate CDC 241, β-lactamase type IMP/OXA
[16] = P. aeruginosa isolate CDC 246, β-lactamase type NDM/OXA
[17] = P. aeruginosa isolate CDC 250, β-lactamase type NDM/OXA
[18] = P. aeruginosa isolate CDC 356, β-lactamase type KPC
[19] = P. aeruginosa isolate CDC 439, β-lactamase type IMP
[20] = P. aeruginosa isolate CDC 444, β-lactamase type VIM
[21] = P. aeruginosa isolate CDC 457, β-lactamase type VIM
[22] = P. aeruginosa isolate CDC 516, β-lactamase type KPC/AmpC
[23] = A. baumannii isolate CDC 273, β-lactamase type ESBL/OXA
[24] = A. baumannii isolate CDC 274, β-lactamase type ESBL/OXA
[25] = A. baumannii isolate CDC 275, β-lactamase type ESBL/OXA
[26] = A. baumannii isolate CDC 277, β-lactamase type ESBL/OXA
[27] = A. baumannii isolate CDC 284, β-lactamase type ESBL/OXA
[28] = A. baumannii isolate CDC 307, β-lactamase type OXA
[29] = A. baumannii isolate CDC 308, β-lactamase type ESBL/OXA
[30] = A. baumannii isolate CDC 311, β-lactamase type OXA
[31] = A. baumannii isolate CDC 312, β-lactamase type OXA
[32] = A. baumannii isolate CDC 313, β-lactamase type ESBL/OXA
[33] = NCTC13304, A. baumannii isolate NCTC 13304, β-lactamase type OXA
[34] = Escherichia coli, ATCC25922, E. coli ATCC 25922
[35] = Escherichia coli, ATCC35218, E. coli ATCC 35218
[36] = Klebsiella pneumoniae, ATCCBAA1705, K. pneumoniae ATCC BAA-1705
[37] = Pseudomonas aeruginosa, ATCC27853, P. aeruginosa ATCC 27853

Measured: MIC

NCC[C@H](O)C(=O)N[C@@H]1C[C@H](N)[C@@H](O[C@H]2O[C@H](CN)[C@@H](O)[C@H](O)[C@H]2O)[C@H](O)[C@H]1O[C@H]1O[C@H](CO)[C@@H](O)[C@H](N)[C@H]1O [Amikacin]
> 64 µg/mL: Escherichia coli; E. coli CDC 118, ESBL/NDM | Escherichia coli; E. coli CDC 435, NDM | Escherichia coli; E. coli CDC 503, ESBL/NDM | Klebsiella pneumoniae; [11] | Pseudomonas aeruginosa; [13] | Pseudomonas aeruginosa; [16] | Pseudomonas aeruginosa; [17] | Pseudomonas aeruginosa; [19] | Pseudomonas aeruginosa; [20] | Acinetobacter baumannii; [23] | Acinetobacter baumannii; [25] | Acinetobacter baumannii; [28] | Acinetobacter baumannii; [29] | Acinetobacter baumannii; [30]
8 µg/mL: Pseudomonas aeruginosa; [14]
1 µg/mL: Escherichia coli; [2] | Escherichia coli; E. coli CDC 114, ESBL/KPC | Escherichia coli; E. coli MMX 5758, ESBL | Acinetobacter baumannii; [31] | [1]; [34] | [1]; [35]
4 µg/mL: Escherichia coli; E. coli CDC 451, KPC | Acinetobacter baumannii; [32]
2 µg/mL: Klebsiella pneumoniae; [8] | Klebsiella pneumoniae; [12] | Pseudomonas aeruginosa; [18] | Pseudomonas aeruginosa; [21] | Pseudomonas aeruginosa; [22] | [1]; [37]
32 µg/mL: Klebsiella pneumoniae; [9] | Pseudomonas aeruginosa; [15] | Acinetobacter baumannii; [27]
64 µg/mL: Escherichia coli; [3] | Escherichia coli; E. coli MMX 5756, ESBL
0.5 µg/mL: Escherichia coli; E. coli MMX 5745, KPC | Klebsiella pneumoniae; [6] | Klebsiella pneumoniae; K. pneumoniae MMX 9029, ESBL | Acinetobacter baumannii; [33]
16 µg/mL: Escherichia coli; E. coli MMX 5755, ESBL | Klebsiella pneumoniae; [4] | Klebsiella pneumoniae; K. pneumoniae CDC 112, KPC | Klebsiella pneumoniae; [5] | Klebsiella pneumoniae; [7] | Klebsiella pneumoniae; [10] | Acinetobacter baumannii; [24] | Acinetobacter baumannii; [26] | [1]; [36]

C[C@H]1COc2c(N3CCN(C)CC3)c(F)cc3c(=O)c(C(=O)O)cn1c23 [Levofloxacin]
8 µg/mL: Escherichia coli; E. coli CDC 118, ESBL/NDM | Escherichia coli; E. coli MMX 5745, KPC | Escherichia coli; E. coli MMX 5755, ESBL | Escherichia coli; E. coli MMX 5758, ESBL | Pseudomonas aeruginosa; [13] | Pseudomonas aeruginosa; [15] | Pseudomonas aeruginosa; [19] | Pseudomonas aeruginosa; [20] | Acinetobacter baumannii; [24] | Acinetobacter baumannii; [26] | Acinetobacter baumannii; [27] | Acinetobacter baumannii; [28]
4 µg/mL: Escherichia coli; E. coli CDC 114, ESBL/KPC | Escherichia coli; E. coli MMX 5756, ESBL | Klebsiella pneumoniae; K. pneumoniae CDC 112, KPC | Klebsiella pneumoniae; [5] | Klebsiella pneumoniae; [12] | Acinetobacter baumannii; [25] | Acinetobacter baumannii; [29]
0.25 µg/mL: Pseudomonas aeruginosa; [22]
1 µg/mL: Acinetobacter baumannii; [33]
0.12 µg/mL: Klebsiella pneumoniae; K. pneumoniae MMX 9029, ESBL | Pseudomonas aeruginosa; [18]
> 8 µg/mL: Escherichia coli; [3] | Escherichia coli; E. coli CDC 435, NDM | Escherichia coli; E. coli CDC 451, KPC | Escherichia coli; E. coli CDC 503, ESBL/NDM | Klebsiella pneumoniae; [4] | Klebsiella pneumoniae; [6] | Klebsiella pneumoniae; [7] | Klebsiella pneumoniae; [9] | Klebsiella pneumoniae; [10] | Klebsiella pneumoniae; [11] | Pseudomonas aeruginosa; [14] | Pseudomonas aeruginosa; [16] | Pseudomonas aeruginosa; [17] | Pseudomonas aeruginosa; [21] | Pseudomonas aeruginosa; P. aeruginosa isolate CDC 518, β-lactamase type KPC/AmpC | Acinetobacter baumannii; [23] | [1]; [36]
2 µg/mL: Acinetobacter baumannii; [30] | Acinetobacter baumannii; [31] | Acinetobacter baumannii; [32]
0.06 µg/mL: [1]; Staphylococcus aureus, ATCC29213, S. aureus ATCC 29213
0.5 µg/mL: [1]; [37]
0.015 µg/mL: Klebsiella pneumoniae; [8]
≤ 0.008 µg/mL: Escherichia coli; [2] | [1]; [34] | [1]; [35]
